In PMC6594156 (Phytotherapy research : PTR, 2015) one finds activity data, which are given here for two compounds.

The target in test [1] is T1, UGT1A3 (Homo sapiens, UniProt P35503).
T1 sequence (P35503 29-534): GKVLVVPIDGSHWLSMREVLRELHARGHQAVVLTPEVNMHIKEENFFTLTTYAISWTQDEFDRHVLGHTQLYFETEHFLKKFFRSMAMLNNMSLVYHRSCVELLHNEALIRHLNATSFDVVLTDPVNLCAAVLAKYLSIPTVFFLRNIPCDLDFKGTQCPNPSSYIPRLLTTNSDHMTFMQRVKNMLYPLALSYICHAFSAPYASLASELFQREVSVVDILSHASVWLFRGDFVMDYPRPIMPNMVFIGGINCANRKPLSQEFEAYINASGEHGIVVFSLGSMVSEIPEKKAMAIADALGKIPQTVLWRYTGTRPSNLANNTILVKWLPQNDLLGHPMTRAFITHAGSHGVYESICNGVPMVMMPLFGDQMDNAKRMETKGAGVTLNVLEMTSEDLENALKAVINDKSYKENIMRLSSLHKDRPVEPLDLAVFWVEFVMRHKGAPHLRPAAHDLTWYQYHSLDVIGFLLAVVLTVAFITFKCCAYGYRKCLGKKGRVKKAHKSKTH
Briefly: recombinant UGT 4-MU glucuronidation, HPLC, single concentration […]. It counts as biochemical. Conditions: read-out: 1A3.

Test [2] has as its target T2, UGT2B7 (Homo sapiens, UniProt P16662).
T2 sequence (P16662 24-529): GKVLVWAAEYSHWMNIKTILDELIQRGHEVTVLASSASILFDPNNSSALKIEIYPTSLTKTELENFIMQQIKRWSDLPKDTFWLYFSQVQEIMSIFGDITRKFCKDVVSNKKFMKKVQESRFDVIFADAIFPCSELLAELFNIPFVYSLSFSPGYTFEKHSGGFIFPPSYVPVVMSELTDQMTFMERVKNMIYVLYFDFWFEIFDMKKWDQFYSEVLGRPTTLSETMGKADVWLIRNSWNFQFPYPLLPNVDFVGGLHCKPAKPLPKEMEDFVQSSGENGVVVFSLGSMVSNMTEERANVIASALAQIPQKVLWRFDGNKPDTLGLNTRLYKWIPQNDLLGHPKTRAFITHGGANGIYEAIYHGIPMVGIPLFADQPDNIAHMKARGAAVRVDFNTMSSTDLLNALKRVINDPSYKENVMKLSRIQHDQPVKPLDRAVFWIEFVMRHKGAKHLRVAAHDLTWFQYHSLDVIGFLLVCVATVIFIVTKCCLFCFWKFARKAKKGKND
Described as above. Conditions: read-out: 2B7. In kind it is biochemical.

Turning to `COc1cc2c(c(OC)c1OC)-c1c(cc(OC)c(OC)c1OC)C[C@H](C)[C@H](C)C2` [schisandrin A], the activity at 100 µM in test [1] is 0%.

In the case of `COc1cc2c(c(O)c1OC)-c1c(cc(OC)c(OC)c1OC)C[C@@H](C)[C@@H](C)C2` [schisanhenol], the activity at 100 µM in test [2] worked out at 7.9%.
